Measured values reported in US20240150377A1, “MODULATORS OF CYSTIC FIBROSIS TRANSMEMBRANE CONDUCTANCE REGULATOR” (VERTEX PHARMACEUTICALS INCORPORATED, priority 2020, published 2024).

Target: T1, CFTR (Homo sapiens, UniProt P13569, DEL508-508)
T1 construct: endogenous in cells; host or cells: primary human bronchial epithelial cells from CF subjects (F508del/MF-HBE), differentiated at air-liquid interface
Assay: HBE2 assay: Ussing chamber assay of CFTR-mediated short-circuit currents
Format: cell-based
Details: F508del/MF-HBE cells, 18-24 hours, 20% human serum; for Emax: read-out: HBE2 Max activity (%)
Protocol: Ussing Chamber Assay of CFTR-Mediated Short-Circuit Currents
After four days the apical media was removed, and the cells were grown at an air liquid interface for >14 days prior to use.
To isolate the CFTR-mediated short-circuit (ISC) current, F508del/MF-HBE grown on Costar® Snapwell™ cell culture inserts were mounted in an Ussing chamber and the transepithelial ISC was measured under voltage-clamp recording conditions (Vhold=0 mV) at 37° C. […] The CFTR-mediated ISC (μA/cm^2) for each condition was determined from the peak forskolin response to the steady-state current following inhibition.
Identification of Corrector Compounds
The activity of the CFTR corrector compounds on the CFTR-mediated ISC was determined in Ussing chamber studies as described above.

[1] = 3 μM corrector, with 44 nM potentiator

T1 sequence (P13569 with tags, fused parts or gaps DEL508-508): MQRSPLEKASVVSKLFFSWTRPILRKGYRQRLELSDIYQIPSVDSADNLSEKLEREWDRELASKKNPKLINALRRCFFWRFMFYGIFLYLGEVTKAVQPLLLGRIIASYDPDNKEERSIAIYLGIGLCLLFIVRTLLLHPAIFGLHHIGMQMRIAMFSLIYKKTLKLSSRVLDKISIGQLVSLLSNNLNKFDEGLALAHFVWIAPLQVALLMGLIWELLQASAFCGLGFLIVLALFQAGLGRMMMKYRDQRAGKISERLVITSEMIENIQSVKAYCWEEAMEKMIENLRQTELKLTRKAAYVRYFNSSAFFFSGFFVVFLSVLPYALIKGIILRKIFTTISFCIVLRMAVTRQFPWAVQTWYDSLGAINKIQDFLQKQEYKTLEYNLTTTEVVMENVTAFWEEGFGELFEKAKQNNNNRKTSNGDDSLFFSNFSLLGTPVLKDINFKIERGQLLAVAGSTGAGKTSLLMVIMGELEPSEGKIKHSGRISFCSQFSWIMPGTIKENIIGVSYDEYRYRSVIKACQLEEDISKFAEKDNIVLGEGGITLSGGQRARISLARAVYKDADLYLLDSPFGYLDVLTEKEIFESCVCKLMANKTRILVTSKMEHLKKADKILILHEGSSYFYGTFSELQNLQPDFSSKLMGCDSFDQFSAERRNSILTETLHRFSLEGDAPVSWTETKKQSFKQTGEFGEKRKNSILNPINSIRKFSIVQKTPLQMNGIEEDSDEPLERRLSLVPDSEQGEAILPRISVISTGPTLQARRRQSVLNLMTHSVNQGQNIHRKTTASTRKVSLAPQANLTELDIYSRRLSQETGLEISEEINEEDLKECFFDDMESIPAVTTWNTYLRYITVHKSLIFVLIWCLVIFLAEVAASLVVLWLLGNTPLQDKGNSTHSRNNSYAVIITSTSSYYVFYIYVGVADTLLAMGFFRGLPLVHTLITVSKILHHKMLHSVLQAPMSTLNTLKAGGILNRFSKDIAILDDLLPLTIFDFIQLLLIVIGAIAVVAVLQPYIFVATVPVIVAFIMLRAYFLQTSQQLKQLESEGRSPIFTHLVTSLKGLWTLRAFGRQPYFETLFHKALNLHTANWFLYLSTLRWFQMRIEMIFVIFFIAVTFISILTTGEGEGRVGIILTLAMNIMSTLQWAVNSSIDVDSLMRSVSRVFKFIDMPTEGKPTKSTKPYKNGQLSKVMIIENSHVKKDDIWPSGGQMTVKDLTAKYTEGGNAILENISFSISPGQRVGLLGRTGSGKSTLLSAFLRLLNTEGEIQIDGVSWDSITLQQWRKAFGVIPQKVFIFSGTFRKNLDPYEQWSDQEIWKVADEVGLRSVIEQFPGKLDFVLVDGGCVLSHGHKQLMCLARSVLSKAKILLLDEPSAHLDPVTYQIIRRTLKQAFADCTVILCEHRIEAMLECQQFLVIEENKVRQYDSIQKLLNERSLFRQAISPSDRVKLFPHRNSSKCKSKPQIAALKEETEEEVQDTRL

HBE2 Activity at 3 μM (%) (3 μM, with 44 nM potentiator)	HBE2 Activity at 3 μM (%) [1]	Compound	other results
+++ (+++ is >60+)		Cc1cccc(C)c1-c1cc2nc(n1)NS(=O)(=O)c1cccc(c1)C(=O)N(Cc1cccc(N3CCC[C@@]3(C)CO)n1)[C@H](CC(C)(C)C)CO2 [Compound 1586]	
	+++ (+++ is >60+)	Cc1cccc(C)c1-c1cc2nc(n1)NS(=O)(=O)c1cccc(c1)C(=O)N(Cc1cncc(N(C)[C@H]3C[C@H](F)C3)n1)[C@H](CCC(C)(C)C)CO2 [Compound 1849]	
	++ (++ is 30-60%)	Cc1cccc(C)c1-c1cc2nc(n1)NS(=O)(=O)c1cccc(c1)C(=O)N(Cc1cncc(N3CCCC3C)n1)[C@H](C1CC(C)(C)C1)CO2 (single isomer, unassigned) [Compound 1337]	
+++ (+++ is >60+)		Cc1cccc(C)c1-c1cc2nc(n1)NS(=O)(=O)c1cccc(c1)C(=O)N(Cc1cncc(N(C)CCOC(=O)N(C)C)n1)[C@H](CC(C)(C)C)CO2 [Compound 1667]	
	+++ (+++ is >60+)	Cc1cccc(C)c1-c1cc2nc(n1)NS(=O)(=O)c1cccc(c1)C(=O)N(Cc1cncc(N3CCCC[C@H]3C)n1)[C@H](CC1(C)CCC1)CO2 [Compound 1744]	
+++ (+++ is >60+)		Cc1cccc(C)c1-c1cc2nc(n1)NS(=O)(=O)c1cccc(c1)C(=O)N(Cc1cncc(N3CC[C@@H]4CC[C@@H]43)n1)[C@H](CC(C)(C)C)CO2 (single isomer, unassigned) [Compound 1314]	
+++ (+++ is >60+)		Cc1cccc(C)c1-c1cc2nc(n1)NS(=O)(=O)c1cccc(c1)C(=O)N(Cc1ncc(OC(C)C)cn1)[C@H](CC1CCC1)[C@@H](C)O2 [Compound 1565]	
	+++ (+++ is >60+)	Cc1cccc(C)c1-c1cc2nc(n1)NS(=O)(=O)c1cccc(c1)C(=O)N(Cc1cnc3c(cc(C(C)C)n3C)n1)[C@H](CC(C)(C)C)CO2 [Compound 1858]	
+++ (+++ is >60+)		CCc1ccnc(CN2C(=O)c3cccc(c3)S(=O)(=O)Nc3nc(cc(-c4c(C)cccc4C)n3)OC[C@H]2CC(C)(C)C)n1 [Compound 1302, (11R)-6-(2,6-Dimethylphenyl)-11-(2,2-dimethylpropyl)-12-[(4-ethylpyrimidin-2-yl)methyl]-2,2-dioxo-9-oxa-2λ^6-thia-3,5,12,19-tetrazatricyclo[12.3.1.14,8]nonadeca-1(18),4,6,8(19),14,16-hexaen-13-one]	
	+++ (+++ is >60+)	Cc1cccc(C)c1-c1cc2nc(n1)NS(=O)(=O)c1cccc(c1)C(=O)N(Cc1cncc(N3CCCC[C@H]3C)n1)[C@H](CCC(C)(C)C)CO2 [Compound 1725]	EC50 (corrector at a range of concentrations with 44 nM potentiator): < 1000 nM; Emax (with 44 nM potentiator): > 60%
	+++ (+++ is >60+)	Cc1cccc(C)c1-c1cc2nc(n1)NS(=O)(=O)c1cccc(c1)C(=O)N(Cc1cncc(N3CCCC[C@H]3C)n1)[C@H](CC1CCCC1)CO2 [Compound 1847]	
+++ (+++ is >60+)		Cc1cccc(C)c1-c1cc2nc(n1)NS(=O)(=O)c1cccc(c1)C(=O)N(Cc1coc(N(C)CC3CCC3)n1)[C@H](CC(C)(C)C)CO2 [Compound 1646]	

The next lines start with the molecule.

Compound	HBE2 Activity at 3 μM (%) (3 μM, with 44 nM potentiator)	HBE2 Activity at 3 μM (%) [1]	other results
Cc1cccc(C)c1-c1cc2nc(n1)NS(=O)(=O)c1cccc(c1)C(=O)N(Cc1cncc(N3CCC[C@H]4CC[C@H]43)n1)[C@H](CC(C)(C)C)CO2 (single isomer, unassigned) [Compound 1316]	+++ (+++ is >60+)		
Cc1cccc(C)c1-c1cc2nc(n1)NS(=O)(=O)c1cccc(c1)C(=O)N(Cc1cncc(N3[C@H](C)C[C@@H]3C)n1)[C@H](CC(C)(C)C)CO2 [Compound 1728]		+++ (+++ is >60+)	
CCN(c1cccc(CN2C(=O)c3cccc(c3)S(=O)(=O)Nc3nc(cc(-c4c(C)cccc4C)n3)OC[C@H]2CC(C)(C)C)n1)C1CCC1 [Compound 1587]	+++ (+++ is >60+)		EC50 (with 44 nM potentiator): < 1000 nM; Emax (with 44 nM potentiator): > 60%
Cc1cccc(C)c1-c1cc2nc(n1)NS(=O)(=O)c1cccc(c1)C(=O)N(Cc1cncc(N(C)C3CC4(CC4)C3)n1)[C@H](CCC(C)C)CO2 [Compound 1796]		+++ (+++ is >60+)	
Cc1cccc(C)c1-c1cc2nc(n1)NS(=O)(=O)c1cccc(c1)C(=O)N(Cc1cncc(C3CCCCO3)n1)[C@H](CCC(C)(C)C)CO2 (stereo in doubt) [Compound 1880]		+++ (+++ is >60+)	
Cc1cccc(C)c1-c1cc2nc(n1)NS(=O)(=O)c1cccc(c1)C(=O)N(Cc1cncc(N(C)C(C)C)n1)[C@H](CCC(C)(C)C)CO2 [Compound 1788]		+++ (+++ is >60+)	
CCCOc1cnc(CN2C(=O)c3cccc(c3)S(=O)(=O)Nc3nc(cc(-c4c(C)cccc4C)n3)OC[C@H]2CCC(C)C)nc1 [Compound 1577]	+++ (+++ is >60+)		
CC[C@@H](C)[C@@H]1COc2cc(-c3c(C)cccc3C)nc(n2)NS(=O)(=O)c2cccc(c2)C(=O)N1Cc1cncc(N(C)C2CCC2)n1 [Compound 1702]			EC50 (with 44 nM potentiator): < 1000 nM; Emax (with 44 nM potentiator): > 60%
Cc1cccc(C)c1-c1cc2nc(n1)NS(=O)(=O)c1cccc(c1)C(=O)N(Cc1cnc3cc(C(C)C)n(C)c3n1)[C@H](CC1(C)CC1)CO2 [Compound 1831]		+++ (+++ is >60+)	
CC(=O)N(C)c1cncc(CN2C(=O)c3cccc(c3)S(=O)(=O)Nc3nc(cc(-c4c(C)cccc4C)n3)OC[C@H]2CC(C)(C)C)n1 [Compound 1581]	+++ (+++ is >60+)		
CCC(C)(C)C[C@@H]1COc2cc(-c3c(C)cccc3C)nc(n2)NS(=O)(=O)c2cccc(c2)C(=O)N1Cc1cncc(N2CCCC[C@H]2C)n1 [Compound 1863]		+++ (+++ is >60+)	
Cc1cccc(C)c1-c1cc2nc(n1)NS(=O)(=O)c1cccc(c1)C(=O)N(Cc1ncc(N3CCC(C)(C)C3)cn1)[C@H](COC(C)C)CO2 [Compound 1955]		+++ (+++ is >60+)	
Cc1cccc(C)c1-c1cc2nc(n1)NS(=O)(=O)c1cccc(c1)C(=O)N(Cc1cncc(N3CC[C@H]3C)n1)[C@H](COC1CC1)CO2 [Compound 1918]		+++ (+++ is >60+)	
Cc1cccc(C)c1-c1cc2nc(n1)NS(=O)(=O)c1cccc(c1)C(=O)N(Cc1cncc(N3CCCC[C@H]3C)n1)[C@@H](C1CC(C)(C)C1)CO2 [Compound 1898]		+++ (+++ is >60+)	
CCOc1cnc(CN2C(=O)c3cccc(c3)S(=O)(=O)Nc3nc(cc(-c4c(C)cccc4C)n3)OC[C@H]2CCC2CC2)nc1 [Compound 1596]	+++ (+++ is >60+)		
CC[C@@H]1CCN1c1cncc(CN2C(=O)c3cccc(c3)S(=O)(=O)Nc3nc(cc(-c4c(C)cccc4C)n3)OC[C@H]2CC(C)(C)C)n1 [Compound 1721]		+++ (+++ is >60+)	
Cc1cccc(C)c1-c1cc2nc(n1)NS(=O)(=O)c1cccc(c1)C(=O)N(Cc1cncc(N(C)CC(C)C)n1)[C@H](CC1(C)CC1)CO2 [Compound 1711]	+++ (+++ is >60+)		EC50 (with 44 nM potentiator): < 1000 nM; Emax (with 44 nM potentiator): > 60%
CCN(c1cncc(CN2C(=O)c3cccc(c3)S(=O)(=O)Nc3nc(cc(-c4c(C)cccc4C)n3)OC[C@H]2COC2CC2)n1)C1CCC1 [Compound 1925]		+++ (+++ is >60+)	
Cc1cccc(C)c1-c1cc2nc(n1)NS(=O)(=O)c1cccc(c1)C(=O)N(Cc1nc(N(C)C3CCC3)cnc1C)[C@H](CC(C)(C)C)CO2 [Compound 1678]	+++ (+++ is >60+)		
Cc1cccc(C)c1-c1cc2nc(n1)NS(=O)(=O)c1cccc(c1)C(=O)N(Cc1cnc3cc(C(C)C)n(C)c3n1)[C@H](CCC1CC1)CO2 [Compound 1828]		+++ (+++ is >60+)	
